Values of other authors as cited in patent publication US4983400A, “Controlled release combination of carbidopa/levodopa” (priority 1989, dated 1991).

Columns and labels:
[1] = in vivo

effect of high protein meals on plasma levodopa levels (human, in vivo, iv): without affecting plasma levodopa levels
Compound: N[C@@H](Cc1ccc(O)c(O)c1)C(=O)O [levodopa]
adverse reactions [1]: severe adverse reactions, especially emesis, were experienced | motor oscillations (intravenous): reduces motor oscillations | effect of high protein meals on response (intravenous, high protein meals): decline in response | residual symptoms at optimal response (intravenous, some patients): either tremor and bradykinesia or mobility with dyskinesia
